US11478498B2, “Topical pharmaceutical formulations containing a low concentration of benzoyl peroxide in suspension in water and a water-miscible organic solvent” (Dow Pharmaceutical Sciences, Inc., priority 2008, dated 2022)

Test: Solubility of benzoyl peroxide in organic solvents by HPLC analysis
Assay type: physicochemical
Conditions: room temperature
From the text: An example of a preferred organic solvent for the formulation of the invention is a polyol, also known as a polyhydric alcohol. Representative examples of polyols include glycols and sugar alcohols. Preferred polyols for the formulation of the invention include polyether glycols, such as ethoxydiglycol, and propylene glycol. A preferred water-miscible organic solvent is propylene glycol. The inventors have determined by HPLC analysis that benzoyl peroxide is soluble in 100% propylene glycol at room temperature at a level between 0.2% and 0.3% w/w. A second preferred organic solvent is ethoxydiglycol, such as sold under the tradename Transcutol® (Gattefosse, Saint-Priest, France). It has been determined by HPLC analysis that benzoyl peroxide is soluble in ethoxydiglycol at room temperature at a level of about 4.9%. Another preferred organic solvent is polyethylene glycol, such as PEG 400.

SMILES: O=C(OOC(=O)c1ccccc1)c1ccccc1 [benzoyl peroxide]
- Solubility of benzoyl peroxide in ethoxydiglycol: about 4.9%
